Laboratory results reported in the supplement of paper PMC10307832.

Tests used:
Assay in all cases: relative viability (nuclei count vs DMSO), 5 days (fraction); higher = more cells survive
ABC-1 = system: ABC-1
Outline: (§1)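 Medians of duplicate plates are given as relative viability. That measure is the nuclei count in treated wells divided by the count in vehicle wells. Counts were taken on 4× images of lung cancer cell lines in 1536-well plates, 5 days after pin-tool dosing the day after seeding with one drug alone or a fixed anchor-drug dose plus five library-drug doses (not always all listed) in √10 steps.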

CAL-12T = system: CAL-12T
Outline: as §1

COR-L 105 = system: COR-L 105
Outline: as §1

ChaGo-K-1 = system: ChaGo-K-1
Outline: as §1

EMC-BAC-2 = system: EMC-BAC-2
Outline: as §1

EPLC-272H = system: EPLC-272H
Outline: as §1

HCC-15 = system: HCC-15
Outline: as §1

HCC-78 = system: HCC-78
Outline: as §1

HOP-62 = system: HOP-62
Outline: as §1

LXF-289 = system: LXF-289
Outline: as §1

NCI-H1666 = system: NCI-H1666
Outline: as §1

NCI-H1755 = system: NCI-H1755
Outline: as §1

NCI-H1915 = system: NCI-H1915
Outline: as §1

NCI-H1975 = system: NCI-H1975
Outline: as §1

NCI-H2023 = system: NCI-H2023
Outline: as §1

NCI-H2085 = system: NCI-H2085
Outline: as §1

NCI-H2126 = system: NCI-H2126
Outline: as §1

NCI-H3122 = system: NCI-H3122
Outline: as §1

NCI-H322M = system: NCI-H322M
Outline: as §1

NCI-H358 = system: NCI-H358
Outline: as §1

NCI-H441 = system: NCI-H441
Outline: as §1

UMC-11 = system: UMC-11
Outline: as §1

COc1nc(C)cnc1NS(=O)(=O)c1cccnc1-c1ccc(-c2nnco2)cc1 [Zibotentan] + C[C@@H](Oc1cc(-c2cnn(C3CCNCC3)c2)cnc1N)c1c(Cl)ccc(F)c1Cl [Crizotinib] (partner 1 µM)
relative viability (ABC-1; first compound 0.08 µM): 1.45 | relative viability (ABC-1; first compound 0.253 µM): 0.847 | relative viability (ABC-1; first compound 0.8 µM): 1.07 | relative viability (ABC-1; first compound 2.53 µM): 0.987 | relative viability (CAL-12T; first compound 0.08 µM): 0.667 | relative viability (CAL-12T; first compound 0.253 µM): 0.553 | relative viability (CAL-12T; first compound 0.8 µM): 0.602 | relative viability (CAL-12T; first compound 2.53 µM): 0.712 | relative viability (COR-L 105; first compound 0.08 µM): 0.826 | relative viability (COR-L 105; first compound 0.253 µM): 0.665 | relative viability (COR-L 105; first compound 0.8 µM): 0.901 | relative viability (COR-L 105; first compound 2.53 µM): 1.07 | relative viability (ChaGo-K-1; first compound 0.08 µM): 1.33 | relative viability (ChaGo-K-1; first compound 0.8 µM): 1.09 | relative viability (ChaGo-K-1; first compound 2.53 µM): 1.21 | relative viability (EMC-BAC-2; first compound 0.08 µM): 0.843 | relative viability (EMC-BAC-2; first compound 0.253 µM): 0.751 | relative viability (EMC-BAC-2; first compound 0.8 µM): 0.778 | relative viability (EMC-BAC-2; first compound 2.53 µM): 0.754 | relative viability (EPLC-272H; first compound 0.08 µM): 0.841 | relative viability (EPLC-272H; first compound 0.253 µM): 0.841 | relative viability (EPLC-272H; first compound 0.8 µM): 1.38 | relative viability (EPLC-272H; first compound 2.53 µM): 0.951 | relative viability (HCC-15; first compound 0.08 µM): 0.918 | relative viability (HCC-15; first compound 0.253 µM): 0.748 | relative viability (HCC-15; first compound 0.8 µM): 0.843 | relative viability (HCC-15; first compound 2.53 µM): 0.885 | relative viability (HCC-78; first compound 0.08 µM): 0.336 | relative viability (HCC-78; first compound 0.253 µM): 0.311 | relative viability (HCC-78; first compound 0.8 µM): 0.324 | relative viability (HCC-78; first compound 2.53 µM): 0.343 | relative viability (HOP-62; first compound 0.08 µM): 0.854 | relative viability (HOP-62; first compound 0.253 µM): 0.862 | relative viability (HOP-62; first compound 0.8 µM): 1.02 | relative viability (HOP-62; first compound 2.53 µM): 1.06 | relative viability (LXF-289; first compound 0.08 µM): 0.882 | relative viability (LXF-289; first compound 0.253 µM): 0.804 | relative viability (LXF-289; first compound 0.8 µM): 0.822 | relative viability (LXF-289; first compound 2.53 µM): 0.805 | relative viability (NCI-H1666; first compound 0.08 µM): 1.01 | relative viability (NCI-H1666; first compound 0.253 µM): 0.856 | relative viability (NCI-H1666; first compound 0.8 µM): 1.15 | relative viability (NCI-H1666; first compound 2.53 µM): 0.996 | relative viability (NCI-H1755; first compound 0.08 µM): 0.891 | relative viability (NCI-H1755; first compound 0.253 µM): 0.887 | relative viability (NCI-H1755; first compound 0.8 µM): 0.826 | relative viability (NCI-H1755; first compound 2.53 µM): 0.873 | relative viability (NCI-H1915; first compound 0.08 µM): 0.968 | relative viability (NCI-H1915; first compound 0.253 µM): 0.879 | relative viability (NCI-H1915; first compound 0.8 µM): 0.957 | relative viability (NCI-H1915; first compound 2.53 µM): 0.945 | relative viability (NCI-H1975; first compound 0.08 µM): 1.04 | relative viability (NCI-H1975; first compound 0.253 µM): 0.871 | relative viability (NCI-H1975; first compound 0.8 µM): 0.837 | relative viability (NCI-H1975; first compound 2.53 µM): 0.967 | relative viability (NCI-H2023; first compound 0.08 µM): 0.605 | relative viability (NCI-H2023; first compound 0.253 µM): 0.475 | relative viability (NCI-H2023; first compound 0.8 µM): 0.72 | relative viability (NCI-H2023; first compound 2.53 µM): 0.631 | relative viability (NCI-H2085; first compound 0.08 µM): 1.03 | relative viability (NCI-H2085; first compound 0.253 µM): 0.815 | relative viability (NCI-H2085; first compound 0.8 µM): 0.938 | relative viability (NCI-H2085; first compound 2.53 µM): 0.925 | relative viability (NCI-H2126; first compound 0.08 µM): 1.01 | relative viability (NCI-H2126; first compound 0.253 µM): 0.94 | relative viability (NCI-H2126; first compound 0.8 µM): 0.992 | relative viability (NCI-H2126; first compound 2.53 µM): 1.05 | relative viability (NCI-H3122; first compound 0.08 µM): 0.259 | relative viability (NCI-H3122; first compound 0.253 µM): 0.234 | relative viability (NCI-H3122; first compound 0.8 µM): 0.269 | relative viability (NCI-H3122; first compound 2.53 µM): 0.282 | relative viability (NCI-H322M; first compound 0.08 µM): 0.932 | relative viability (NCI-H322M; first compound 0.253 µM): 0.901 | relative viability (NCI-H322M; first compound 0.8 µM): 0.496 | relative viability (NCI-H322M; first compound 2.53 µM): 0.934 | relative viability (NCI-H358; first compound 0.08 µM): 0.581 | relative viability (NCI-H358; first compound 0.8 µM): 0.665 | relative viability (NCI-H358; first compound 2.53 µM): 0.617 | relative viability (NCI-H441; first compound 0.08 µM): 0.772 | relative viability (NCI-H441; first compound 0.253 µM): 0.599 | relative viability (NCI-H441; first compound 0.8 µM): 0.982 | relative viability (NCI-H441; first compound 2.53 µM): 0.898 | relative viability (UMC-11; first compound 0.08 µM): 0.606 | relative viability (UMC-11; first compound 0.253 µM): 0.64 | relative viability (UMC-11; first compound 0.8 µM): 0.62 | relative viability (UMC-11; first compound 2.53 µM): 0.568
